# Key:
# [1] = test system: ovariectomized mouse (type I osteoporosis model animal); experiment: Change of bone mass in type I osteoporosis model animal (ovariectomized mice, dosing 3 months, femur pQCT); format: in vivo
# Source text: Female Slc: ddy mice of 4 weeks old (Japan SLC, Inc.) was operated with ovariectomy to use as a type I osteoporosis model animal. Also, in order to delete the affection by invasion, a group which is operated without ovariectomy (Sham operation) is set (Sham group). These were the […] model animals.
# Animal bedding were changed twice a week and always to use all fresh one, CRF-1 (Oriental Yeast Co., Ltd.) is fed as feed and deionized water as drinking water were freely given. Their body weights were weighed twice a week by the end of the experiment.
# Fargesin was dissolved in 30 mL of a solution (it is referred to as “TD solution”, hereinbelow) containing 4% dimethyl sulfoxide (it is referred to as “DMSO”, hereinbelow) and 4% TWEEN 80 (both were purchased from Wako Pure Chemical Industries, Ltd.) so as that a dosage amount of fargesin becomes 20 mg/kg body wt/day, or […].
# After the surgical operation, the mice were adapted to the circumstances for 5 days, and then they were divided to the Sham group, the negative control, the positive control group, and the test substance administration group (6 mice per group). The ovariectomized mice were used for the negative control group, the positive control group, and the test substance administration group.
# Fargesin solution was daily administrated to the ovariectomized mice in the test group at the dosage of 20 mg/kg body wt/day (it is referred to as “F20 group”, hereinbelow) or 100 mg/kg body wt/day (it is referred to as “F100 group”, hereinbelow) for 3 month p.o.
# In order to study effects of fargesin on the bone, the femur, the largest long bone, was used.
# The mice in each group were killed by the cervical dislocation under diethyl ether anesthesia. Their right femurs were excised with muscles, and the muscles were removed from the femur after the excision. Lengths of the excised bones from the mice in the groups were measured, and they were dipped in 70% ethanol to be fixed.
# In FIG. 3, the bone was shown schematically. The long bone (tubular bone) was composed of two thick and rounded ends (epiphysis), and thin and long part between them (a shaft). The bone extends to longitudinal direction, depending on the growth of a plate-shape epiphyseal cartilage (a growth plate) between the epiphysis and the shaft. The region of 1 mm proximal side from the A position for a measurement was set to that from 1 mm proximal region (epiphysis) from the distal growth plate as decided as the measurement region.
# The bone density was measured by using the peripheral quantitative computed tomography (pQCT, XCT Research SA+, Stratec Medizintechnik GmbH, Merk Ltd) (FIG. 3B). The measurement was performed under the conditions: a diameter of 90 mm, a voxel size of 0.12 mm, a CT speed of 10 mm/sec, and a block number of 1. Bone mineral content (mg/mm), bone density (mg/cm^3), and cross section of the bone (mm^2) of the entire of tomographic images (whole bone area) were calculated.
# Next, the area of the cancellous bone was extracted (peel mode 20), and then the bone mineral amount (mg/mm), the section of the bone (mm^2), and the bone density (mg/cm^3) were calculated. Further to the cortical bone, the bone mineral amount (mg/mm), the bone density (mg/cm^3), the section of the bone (mm^2), a bone thickness (mm), the periosteum perimeter of the cortical bone (mm), and the endosteum perimeter of the cortical bone (mm) were calculated.
# Based on the bone diameter and the bone density measured by the pQCT, SSI was calculated. SSI is composed of Polar SSI (torsion strength in polar coordination), X-axis SSI (strength in X axis, three-point bending strength), and Y-axis SSI (Y axis strength, three-point lateral bending strength), and it is expressed by the following general equation.
# Wherein, Z is the coefficient of the cross section (mm^3), CBD is the bone density of the cortical bone (mg/cm^3), and ND is the physiological bone density (1200 mg/cm^3). The coefficient Z is shown as the following equation.
# [2] = test system: ovariectomized mouse (OVX mouse); experiment: Bone formation in ovariectomized mouse (OVX mouse), dosing after bone resorption induction period, femur pQCT; format: in vivo; settings: 80 μg/kg/day s.c.
# Protocol: Four-week-old female Slc; ddy mice (Japan SLC, Inc.) were purchased, and they were divided into 8 groups without acclimate keeping (6 mice per group). They were anesthetized by using 50 mg/kg of pentobarbital to be ovariectomized (it is referred to as “OVX” herein below) or to have Sham operation (it is referred to as “Sham” herein below) under the anesthesia which is given by intraperitoneal administration of 50 mg/kg of Somnopentyl (pentobarbital sodium).
# From the second day of the ovariectomy (or Sham operation), each group was maintained under the condition of 12 hour light/dark cycle, 23±3 degree centigrade as the room temperature, and humidity 55±5% for 2 months as the bone resorption induction period. The animal bedding was exchanged twice a week and all fresh bedding was used at all times. CRF-1 (Oriental Yeast Co., Ltd.) as the feed and deionized water as drinking water were freely given.
# After two month period from the test start, the bone resorption induction period, the test substance were given to each group at the amount shown in the following Table 7 for 3 month.
# Ninety % of MeOH fraction (Shin-i) obtained in Example 1 and Fargesin (may refer to “Far” thereafter) were respectively dissolved into TD solution at the concentration shown in Table 7, and then they were administrated per os.
# Human PTH (1-34) (herein below, it is sometimes referred to as “hPTH (1-34)”) were dissolved in distilled water at the concentration of 80 μg/kg/day, and it was administrated subcutaneously.
# After 3 month from the administration start, the mice belonging to all of the groups were weighed. They were anesthetized by using diethylether, and were collected their blood from their hearts, and then they were died. Then, organs such as the uterus, the white adipose tissue (WAT), the brown adipose tissue (BAT), the liver, the spleen, and both left and right lower extremities were removed. The left and right lower extremities were separated into the femurs and the tibias, and they were stored in 70% EtOH under the room temperature.
# The muscles were removed from the obtained femur (right), and then its bone density and the like were measured by using pQCT employed in Example 1 under the following conditions.
# Recognition of contour (CONTMODE): 2 (auto search of ROI)
# Recognition method of cancellous bone: Surface & Area
# Ration of cancellous bone area to all of the cross section areas: 35%
# CORTMODE used in CORTBD: 1* * Voxels not larger than the standard value for distinguishing the cortical bone from the cancellous bone (threshold: threshold) were omitted. Each tissue weight was also measured.
# TH value used in CORTBD: 690
# Among the all data of cancellous bone density obtained from pQCT, both of the highest and the lowest data were deleted to obtain the Median. As to the other parameters were treated as the same as this, the graph was made with N=6. Statistical analysis was performed by using the Dennett's two-sided t test.
# TRACP5b = experiment: Serum TRACP5b of OVX mice (bone metabolism marker); format: in vivo, mouse; settings: 80 μg/kg/day s.c.; compared to the OVX group
# Protocol: All obtained blood from the heart under diethyl ether anesthesia at dissection was stored at 4 degree centigrade for 24 hours. Then, the blood was centrifuged at 3,000 rpm (4,000×g) for 15 minutes to separate the sera.
# According to the protocol of Mouse TRAP™ Assay (Immuno-diagnostic Systems Ltd, the United of Kingdom), TRACP5b in the obtained sera was determined.
# [3] = OVX mice, B100 group: 100 μg/kg body wt/day i.p.
# [4] = OVX mice, B100 group: 100 μg/kg body wt/day i.p. (text prints F100 group)
# [5] = OVX mice, B100 group: 100 μg/kg body wt/day i.p., right femur, pQCT
# [6] = OVX mice, 3 months dosing after 2-month induction
compound,measurement,setting,value
"C[C@]12CC[C@@H]3c4ccc(O)cc4CC[C@H]3[C@@H]1CC[C@@H]2O [β-estradiol, reference compound]",Average body weight during mouse growth,"[1]; B100 group: 100 μg/kg body wt/day i.p., versus NC group",lower than that of NC group mice
same,Cortical bone Bone density,[1]; [3],867.475 ± 13.724 mg/mL
same,Cortical bone Bone thickness,[1]; [3],0.365 ± 0.038 mm
same,Cortical bone adventitia diameter,[1]; [3],7.9895 ± 0.096 mm
same,Cortical bone lining membrane diameter,[1]; [3],5.699 ± 0.229 mm
same,Polar axis bone strength (Table 3),[1]; [3],1.946 ± 0.107 mm^3
same,"bone mineral mass, cancellous bone",[1]; [3],0.725±0.110 mg/mm
same,"bone mineral mass, whole bone",[1]; [3],3.325±0.203 mg/mm
same,"bone mineral mass, cortical bone",[1]; [4],2.163±0.230 mg/mm
same,"cross section area of the bone, cortical bone",[1]; [4],2.4825±0.230 mm^2
same,Polar axis strength (polar coordinates strength),"[1]; OVX mice, B100 group: 100 μg/kg body wt/day i.p., SSI from pQCT",1.376±0.088 mm^3
same,Bone density Cancellous bone,[1]; [5],399.050 ± 53.851 mg/mL
same,Bone density whole bone,[1]; [5],652.025 ± 28.386 mg/mL
"hPTH(1-34): Human PTH (1-34), dissolved in distilled water, administrated subcutaneously [reference compound]","Bone density of cancellous bone, relative value",[2]; 5M Sham = 100,76.1
same,"Bone density of cortical bone, relative value",[2]; 5M Sham = 100,92.2
same,"Bone density of the whole bones, relative value",[2]; 5M Sham = 100,86.0
same,Bone strength (polar coordinates torsion strength),[2]; compared to Control OVX group,significantly increased
same,Bone density of cancellous bone,[2]; [6],88.83 ± 30.90 mg/cm^2
same,Bone density of cortical bone,[2]; [6],906.50 ± 32.19 mg/cm^2
same,Bone thickness of cortical bone,[2]; [6],0.22 ± 0.03 mm
same,Cross section area of cortical bone,[2]; [6],1.69 ± 0.25 mm^2
same,Perimeter of cortical bone adventitia,[2]; [6],8.37 ± 0.26 mm
same,Perimeter of cortical bone lining membrane,[2]; [6],6.98 ± 0.34 mm
same,Bone density of the whole bones,"[2]; OVX mice, 3 months dosing after 2-month induction, right femur, pQCT",452.25 ± 49.00 mg/cm^2
same,level of TRACP5b in the sera,TRACP5b,did not show major alteration
